# What was measured:
# Type in all cases: biochemical
# hPDE4D = target: T1, hPDE4D (Homo sapiens, UniProt Q08499); assay: PDE7 selectivity test (Ki value), Experimental Example 2: hPDE4D; settings: Ki from IC50 by Cheng-Prusoff, read-out: PDE inhibition constant Ki, PDE4
# T1 construct: purchased SB Drug Discovery
# Protocol: (§1) hPDE1A, hPDE2A, hPDE3A, hPDE4D, hPDE5A, and hPDE8B were purchased from SB Drug Discovery. hPDE7B was isolated by the same method as [Method for preparing samples 1], and hPDE9A, hPDE10A, and hPDE11A were isolated by the same method as hPDE7B, i.e., isolated from COS-7 cells transfected with plasmids encoding each PDE. PDE6 was purified and isolated from bovine retina (bovine PDE6).
# (§2) Prior to the calculation of Ki value, Km value of each PDE against cAMP or cGMP was calculated. Each PDE diluted with an assay buffer so that it would have an appropriate enzyme activity, and six or more concentrations of cAMP or cGMP were reacted at room temperature for 60 minutes. Regarding PDE using cAMP as a substrate, PDELight (trademark) HTS cAMP phosphodiesterase Kit (Lonza) was used to measure a degradation product, 5′-AMP. Also, regarding PDE using cGMP as a substrate, […] of perchloric acid was added to the mixture to stop the reaction, and the resulting mixture was subjected to LC-MS/MS to measure the residual cGMP concentration. The amount of degraded substrate in each substrate concentration was calculated, the concentration of the added substrate was plotted on the horizontal axis, the amount of degraded substrate was plotted on the vertical axis, and Km value was calculated by non-linear regression on the basis of Michaelis-Menten equation. Km value (substrate) of each PDE was hPDE1A: 4.3 (cGMP), hPDE2A: 36 (cAMP), hPDE3A: 0.11 (cAMP), hPDE4D: 0.90 (cAMP), hPDE5A: 3.9 (cGMP), bovine PDE6:9.8 (cGMP), hPDE7B: 0.015 (cAMP), hPDE8B: 0.63 (cAMP), hPDE9A: 0.0037 (cGMP), hPDE10A: 0.051 (cAMP), and hPDE11A: 1.4 (cAMP) μmol/L, respectively.
# (§3) Next, PDE inhibition assay of a compound was carried out using each PDE. The PDE inhibition assay was basically carried out by the same enzyme reaction method as [Assay procedure 1], and the degraded amount of cAMP or cGMP was measured by the same method as [Assay procedure 2]. In the assay, a concentration approximated to Km value of each PDE against cAMP or cGMP was used as a substrate concentration. Meanwhile, regarding hPDE5A, hPDE8B, and hPDE9A, IMAP (trademark) FP Phosphodiesterase Evaluation Assay Kit (Molecular Devices) was used to measure the degradation of FAM-cAMP or FAM-cGMP by fluorescence depolarization technique.
# (§4) Each compound was evaluated at six or more concentrations with common ratio 10. Each inhibition rate was calculated according to <Method for data calculation 1>, and then each IC50 value was calculated by sigmoid regression. The resulting IC50 value was used in the following Cheng-Prusoff equation to calculate each Ki value. Ki=IC50/(1+[S]/Km), wherein [S] represents a substrate concentration used
# hPDE2A = target: T2, hPDE2A (Homo sapiens, UniProt O00408); assay: PDE7 selectivity test (Ki value), Experimental Example 2: hPDE2A; settings: Ki from IC50 by Cheng-Prusoff, read-out: PDE inhibition constant Ki, PDE2
# T2 construct: purchased SB Drug Discovery
# T2 sequence (O00408 whole entry): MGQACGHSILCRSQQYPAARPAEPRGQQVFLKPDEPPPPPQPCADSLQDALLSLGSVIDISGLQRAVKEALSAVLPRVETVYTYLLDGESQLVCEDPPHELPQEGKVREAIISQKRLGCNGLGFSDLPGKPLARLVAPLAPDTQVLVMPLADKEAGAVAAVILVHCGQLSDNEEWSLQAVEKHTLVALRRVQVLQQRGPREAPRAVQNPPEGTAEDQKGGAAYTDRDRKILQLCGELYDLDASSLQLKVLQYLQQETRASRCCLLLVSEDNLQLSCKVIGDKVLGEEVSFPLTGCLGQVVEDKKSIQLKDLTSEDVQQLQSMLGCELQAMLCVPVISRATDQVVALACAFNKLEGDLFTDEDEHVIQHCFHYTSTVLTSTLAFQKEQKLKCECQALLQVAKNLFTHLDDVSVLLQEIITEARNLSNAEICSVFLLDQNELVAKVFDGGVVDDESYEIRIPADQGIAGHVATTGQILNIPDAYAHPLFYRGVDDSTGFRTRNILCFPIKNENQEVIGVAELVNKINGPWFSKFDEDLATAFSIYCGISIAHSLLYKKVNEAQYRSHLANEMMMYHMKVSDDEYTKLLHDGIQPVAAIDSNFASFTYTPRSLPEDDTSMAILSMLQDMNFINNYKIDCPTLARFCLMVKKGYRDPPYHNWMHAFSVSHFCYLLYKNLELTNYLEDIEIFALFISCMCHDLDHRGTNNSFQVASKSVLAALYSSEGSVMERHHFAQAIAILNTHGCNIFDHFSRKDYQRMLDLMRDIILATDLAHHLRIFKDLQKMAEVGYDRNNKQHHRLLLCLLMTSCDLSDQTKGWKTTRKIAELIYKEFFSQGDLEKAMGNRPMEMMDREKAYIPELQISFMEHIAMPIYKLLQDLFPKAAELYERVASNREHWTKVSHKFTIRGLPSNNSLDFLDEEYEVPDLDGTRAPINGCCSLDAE
# Protocol: as §1, §2, §3, §4
# hPDE5A = target: T3, hPDE5A (Homo sapiens, UniProt O76074); assay: PDE7 selectivity test (Ki value), Experimental Example 2: hPDE5A; settings: Ki from IC50 by Cheng-Prusoff, read-out: PDE inhibition constant Ki, PDE5
# T3 construct: purchased SB Drug Discovery
# Protocol: as §1, §2, §3, §4
# hPDE11A = target: T4, hPDE11A (Homo sapiens, UniProt Q9HCR9); assay: PDE7 selectivity test (Ki value), Experimental Example 2: hPDE11A; settings: Ki from IC50 by Cheng-Prusoff, read-out: PDE inhibition constant Ki, PDE11
# T4 construct: made in house; host or cells: COS-7 cells
# T4 sequence (Q9HCR9 whole entry): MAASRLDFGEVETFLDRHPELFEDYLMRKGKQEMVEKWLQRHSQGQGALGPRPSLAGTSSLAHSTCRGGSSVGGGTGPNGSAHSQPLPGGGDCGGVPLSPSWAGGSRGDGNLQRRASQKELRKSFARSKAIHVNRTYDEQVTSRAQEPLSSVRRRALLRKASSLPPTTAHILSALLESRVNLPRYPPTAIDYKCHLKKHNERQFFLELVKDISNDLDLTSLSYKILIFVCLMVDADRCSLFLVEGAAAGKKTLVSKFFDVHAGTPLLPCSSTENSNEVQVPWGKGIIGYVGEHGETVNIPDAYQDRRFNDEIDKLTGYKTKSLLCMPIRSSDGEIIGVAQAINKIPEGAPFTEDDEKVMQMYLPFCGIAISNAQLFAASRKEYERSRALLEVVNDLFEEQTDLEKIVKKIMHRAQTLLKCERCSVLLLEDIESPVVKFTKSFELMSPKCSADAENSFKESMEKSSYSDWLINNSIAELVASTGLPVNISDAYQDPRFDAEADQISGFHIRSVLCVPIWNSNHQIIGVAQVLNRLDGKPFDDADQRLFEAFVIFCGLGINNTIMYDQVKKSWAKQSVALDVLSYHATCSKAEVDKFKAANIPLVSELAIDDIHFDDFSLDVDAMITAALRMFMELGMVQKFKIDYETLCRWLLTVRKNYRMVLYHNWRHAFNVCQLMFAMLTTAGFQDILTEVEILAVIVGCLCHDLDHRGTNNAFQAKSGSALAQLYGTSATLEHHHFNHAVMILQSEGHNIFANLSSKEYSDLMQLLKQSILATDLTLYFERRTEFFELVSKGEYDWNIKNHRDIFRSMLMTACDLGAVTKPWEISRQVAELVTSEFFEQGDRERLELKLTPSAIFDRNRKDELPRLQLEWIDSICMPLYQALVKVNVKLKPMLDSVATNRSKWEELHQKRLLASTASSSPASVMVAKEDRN
# Protocol: as §1, §2, §3, §4
# hPDE9A = target: T5, hPDE9A (Homo sapiens, UniProt O76083); assay: PDE7 selectivity test (Ki value), Experimental Example 2: hPDE9A; settings: Ki from IC50 by Cheng-Prusoff, read-out: PDE inhibition constant Ki, PDE9
# T5 construct: made in house; host or cells: COS-7 cells
# T5 sequence (O76083 whole entry): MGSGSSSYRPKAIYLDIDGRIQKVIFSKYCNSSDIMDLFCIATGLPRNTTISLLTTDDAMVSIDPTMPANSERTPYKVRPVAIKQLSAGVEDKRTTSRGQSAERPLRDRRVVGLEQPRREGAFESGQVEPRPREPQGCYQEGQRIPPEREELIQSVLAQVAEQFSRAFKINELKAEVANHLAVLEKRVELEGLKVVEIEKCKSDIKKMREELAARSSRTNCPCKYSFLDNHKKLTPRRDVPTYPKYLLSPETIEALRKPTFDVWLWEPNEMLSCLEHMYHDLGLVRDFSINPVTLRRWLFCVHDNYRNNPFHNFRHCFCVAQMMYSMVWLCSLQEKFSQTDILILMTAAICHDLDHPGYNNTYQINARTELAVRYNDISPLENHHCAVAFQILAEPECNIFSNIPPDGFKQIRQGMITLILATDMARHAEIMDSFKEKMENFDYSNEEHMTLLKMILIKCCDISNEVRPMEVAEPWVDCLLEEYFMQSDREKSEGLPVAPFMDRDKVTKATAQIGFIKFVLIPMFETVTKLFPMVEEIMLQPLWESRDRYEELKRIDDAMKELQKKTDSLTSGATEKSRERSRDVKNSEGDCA
# Protocol: as §1, §2, §3, §4
# hPDE1A = target: T6, hPDE1A (Homo sapiens, UniProt P54750); assay: PDE7 selectivity test (Ki value), Experimental Example 2: hPDE1A; settings: Ki from IC50 by Cheng-Prusoff, read-out: PDE inhibition constant Ki, PDE1
# T6 construct: purchased SB Drug Discovery
# T6 sequence (P54750 whole entry): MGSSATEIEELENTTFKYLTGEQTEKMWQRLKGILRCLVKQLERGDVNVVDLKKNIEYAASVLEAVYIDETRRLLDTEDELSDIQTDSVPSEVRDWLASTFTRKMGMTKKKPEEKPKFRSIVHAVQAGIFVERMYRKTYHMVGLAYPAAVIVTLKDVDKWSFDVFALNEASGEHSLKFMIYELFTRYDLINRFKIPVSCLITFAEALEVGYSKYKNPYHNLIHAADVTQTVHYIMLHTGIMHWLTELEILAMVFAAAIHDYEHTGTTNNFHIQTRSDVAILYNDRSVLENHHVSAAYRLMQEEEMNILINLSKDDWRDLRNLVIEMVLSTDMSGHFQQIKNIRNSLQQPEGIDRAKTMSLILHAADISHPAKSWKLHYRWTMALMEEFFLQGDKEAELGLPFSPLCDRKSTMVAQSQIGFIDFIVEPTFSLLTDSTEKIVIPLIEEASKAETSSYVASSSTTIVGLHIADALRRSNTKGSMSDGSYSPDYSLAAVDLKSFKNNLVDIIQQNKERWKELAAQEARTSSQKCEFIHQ
# Protocol: as §1, §2, §3, §4
# hPDE8B = target: T7, hPDE8B (Homo sapiens, UniProt O95263); assay: PDE8 inhibition assay (IC50), Experimental Example 3; settings: hPDE8B; read-out: PDE inhibition assay IC50, PDE8
# T7 construct: purchased SB Drug Discovery
# T7 sequence (O95263 whole entry): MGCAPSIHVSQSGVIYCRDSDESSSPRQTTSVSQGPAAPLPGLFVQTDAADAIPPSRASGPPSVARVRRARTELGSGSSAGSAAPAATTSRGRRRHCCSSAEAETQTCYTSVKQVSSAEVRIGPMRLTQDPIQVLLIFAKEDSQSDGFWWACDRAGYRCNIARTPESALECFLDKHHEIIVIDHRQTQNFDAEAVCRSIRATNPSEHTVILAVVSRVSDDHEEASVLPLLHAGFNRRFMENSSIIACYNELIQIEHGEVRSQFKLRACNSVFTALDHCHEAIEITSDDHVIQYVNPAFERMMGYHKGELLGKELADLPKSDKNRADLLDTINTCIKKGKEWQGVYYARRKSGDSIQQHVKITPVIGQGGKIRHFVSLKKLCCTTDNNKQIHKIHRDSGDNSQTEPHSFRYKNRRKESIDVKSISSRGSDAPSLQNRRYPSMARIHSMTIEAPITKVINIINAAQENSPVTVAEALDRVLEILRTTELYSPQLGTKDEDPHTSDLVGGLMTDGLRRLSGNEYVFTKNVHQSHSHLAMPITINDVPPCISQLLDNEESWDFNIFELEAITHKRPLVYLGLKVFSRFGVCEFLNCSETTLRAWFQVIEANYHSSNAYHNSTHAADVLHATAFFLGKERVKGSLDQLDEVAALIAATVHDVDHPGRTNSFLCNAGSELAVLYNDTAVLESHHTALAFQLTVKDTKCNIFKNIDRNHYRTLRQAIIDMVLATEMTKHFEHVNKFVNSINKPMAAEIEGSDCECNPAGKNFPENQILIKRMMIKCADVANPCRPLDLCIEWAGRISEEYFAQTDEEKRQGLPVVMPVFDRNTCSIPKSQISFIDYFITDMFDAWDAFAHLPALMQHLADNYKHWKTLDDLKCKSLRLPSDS
# How it was run: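 Recombinant human enzymes incubated with compound and 3 nmol/L cAMP (final) in Tris-HCl pH 7.5 buffer with MgCl2, BSA, DTT, 2% DMSO final, 60 min at room temperature. Residual cAMP measured by TR-FRET (LANCE Ultra), reaction stopped with 0.5 mmol/L IBMX. IC50 from inhibition relative to no-compound (0%) and no-enzyme (100%) controls.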
# T1 sequence (Q08499 whole entry): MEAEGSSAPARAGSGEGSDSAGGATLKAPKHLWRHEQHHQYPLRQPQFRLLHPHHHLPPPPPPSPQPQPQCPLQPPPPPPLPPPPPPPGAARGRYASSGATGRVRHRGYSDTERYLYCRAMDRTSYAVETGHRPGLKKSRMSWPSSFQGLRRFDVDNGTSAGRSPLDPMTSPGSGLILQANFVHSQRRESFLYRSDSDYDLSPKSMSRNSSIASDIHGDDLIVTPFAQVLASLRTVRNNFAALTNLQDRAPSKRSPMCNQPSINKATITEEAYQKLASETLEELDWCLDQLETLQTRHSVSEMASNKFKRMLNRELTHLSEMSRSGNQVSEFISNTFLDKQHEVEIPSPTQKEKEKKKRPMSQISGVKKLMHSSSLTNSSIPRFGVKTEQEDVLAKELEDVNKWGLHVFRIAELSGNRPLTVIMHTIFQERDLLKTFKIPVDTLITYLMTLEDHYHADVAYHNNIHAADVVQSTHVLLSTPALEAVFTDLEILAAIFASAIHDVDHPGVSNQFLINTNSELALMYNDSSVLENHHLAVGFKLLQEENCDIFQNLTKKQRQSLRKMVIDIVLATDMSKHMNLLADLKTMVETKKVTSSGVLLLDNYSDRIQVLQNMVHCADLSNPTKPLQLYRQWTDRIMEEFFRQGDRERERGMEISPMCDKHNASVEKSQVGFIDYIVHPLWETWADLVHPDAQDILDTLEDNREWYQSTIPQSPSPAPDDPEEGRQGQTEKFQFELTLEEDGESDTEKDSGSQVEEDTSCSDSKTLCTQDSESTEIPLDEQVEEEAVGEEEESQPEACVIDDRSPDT
structure (smiles),measurement,setting,value
Cc1nc(N)c2nnn(C3CCCCC3)c2n1 [Example 4],Ki,hPDE4D,0.22 µM
same,Ki,hPDE2A,6.6 µM
same,Ki,hPDE5A,> 9.8 µM
same,Ki,hPDE11A,> 5 µM
same,Ki,hPDE9A,> 0.36 µM
same,Ki,hPDE1A,> 5.2 µM
"C[C@@H]1CCC[C@H](c2nnc3c(N)nccn23)C1 [Example 204, 3-[(1S,3R)-3-methylcyclohexyl][1,2,4]triazolo[4,3-a]pyrazin-8-amine]",IC50,hPDE8B,1.75 µM
same,Ki,hPDE4D,1.2 µM
same,Ki,hPDE2A,14 µM
same,Ki,hPDE5A,> 98 µM
same,Ki,hPDE11A,46 µM
same,Ki,hPDE9A,> 3.6 µM
same,Ki,hPDE1A,8.9 µM
"Nc1nccn2c(C3CCCCC3)nnc12 [Example 141, 3-cyclohexyl[1,2,4]triazolo[4,3-a]pyrazin-8-amine]",IC50,hPDE8B,1.77 µM
same,Ki,hPDE4D,> 4.8 µM
same,Ki,hPDE2A,> 5.1 µM
same,Ki,hPDE5A,> 9.8 µM
same,Ki,hPDE11A,> 5 µM
same,Ki,hPDE9A,> 0.36 µM
same,Ki,hPDE1A,> 5.2 µM
"Nc1ncnc2c1nnn2C1CCCCC1 [Example 3, 3-cyclohexyl-3H-[1,2,3]triazolo[4,5-d]pyrimidin-7-amine]",IC50,hPDE8B,0.7 µM
same,Ki,hPDE4D,4.4 µM
same,Ki,hPDE2A,27 µM
same,Ki,hPDE5A,> 98 µM
same,Ki,hPDE11A,29 µM
same,Ki,hPDE9A,> 3.6 µM
same,Ki,hPDE1A,> 52 µM
"CC1CCCCC1n1nnc2c(N)ncnc21 (single isomer, unassigned) [Example 191, 3-(cis-2-methylcyclohexyl)-3H-[1,2,3]triazolo[4,5-d]pyrimidin-7-amine]",IC50,hPDE8B,5.33 µM
same,Ki,hPDE4D,4.2 µM
same,Ki,hPDE2A,10 µM
same,Ki,hPDE5A,> 98 µM
same,Ki,hPDE9A,> 3.6 µM
same,Ki,hPDE1A,39 µM

# — patent US20190185479A1, “BICYCLIC NITROGENATED HETEROCYCLIC COMPOUND” (MITSUBISHI TANABE PHARMA CORPORATION, priority 2016, published 2019)
